Laboratory results as given in US20240368185A1, “MACROCYCLIC AZOLOPYRIDINES” (Fulcrum Therapeutics, Inc., priority 2021, published 2024).
In brackets after ≈: the same amount, converted by molar mass. One block for each compound: values may come before it.

Assays:
[1] = assay type: physicochemical
Experimental: Crystalline, Form W material of (S)-12-fluoro-4-(2-methylpyridin-3-yl)-7a,8,13,14-tetrahydro-7H-[1,2,4]triazolo[4′,3′:1,6]pyrido[3,2-b]benzofuro[4,3-fg][1,4]oxazonine, free base, was prepared as follows. About 2.5 mg of (S)-12-fluoro-4-(2-methylpyridin-3-yl)-7a,8,13,14-tetrahydro-7H-[1,2,4]triazolo[4′,3′:1,6]pyrido[3,2-b]benzofuro[4,3-fg][1,4]oxazonine, maleic acid salt (Form 7-A), was loaded into a vial. 1 mL of water was added, and the mixture was warmed to 37° C. Additional water was added to the slurry, which thinned considerably and then appeared to start precipitating a fine white solid. This was viewed as likely disproportionation and additional water was not added. The mixture was stirred overnight, and the following day the fine solid suspended in the solution was collected and analyzed by XRPD. It was observed that the maleic acid salt had disproportionated over the slurry time.

[2] = Salt screening: XRPD form after exposure to 95%+ relative humidity for one day; assay type: physicochemical; design: key: Am = amorphous; settings: solid dried under vacuum at 50° C., then 95%+ relative humidity for one day
Experimental: A stock solution of Form P material of (S)-12-fluoro-4-(2-methylpyridin-3-yl)-7a,8,13,14-tetrahydro-7H-[1,2,4]triazolo[4′,3′:1,6]pyrido[3,2-b]benzofuro[4,3-fg][1,4]oxazonine, free base, was prepared in 2,2,2-trifluoroethanol (50.8 mg/mL). Stock solutions of counter ion were prepared in EtOH.
Salt formation was carried out at room temperature in 2 mL vials. 25.4 mg of Form P free base material (500 μL stock solution) and 1.1 equivalents of counter ion were added to each vial. Solvent was allowed to evaporate at 40° C. overnight with stirring. […] These vials were kept on the hotplate to continue evaporating (temperature increased to 50° C.), while the more-dry samples were dried further under vacuum for 3 hours at 50° C. The samples still containing solvent at the end of the day were left to stir at 30° C. over the weekend to finish evaporating the solvent. These samples were dried further under vacuum for 3 hours at 50° C.
Approximately 20 volumes of solvent (0.5 mL) was added to each vial containing the dried solids. The three solvents selected were EtOH, EtOAc, and IPA:water (9:1 vol). Once solvents were added, the mixtures (or solutions) were stirred at room temperature. When slurries were formed, the solids were filtered for XRPD analysis.
XRPD analysis was done in three stages. XRPD of the wet cake was done for all collected samples. […]

[3] = Dynamic vapor sorption (DVS) analysis; assay type: physicochemical; settings: between about 2 to about 92% relative humidity (RH) at 25° C.
Experimental: Dynamic vapor sorption (DVS) analysis was performed using a DVS Intrinsic 1. The sample (25 mg) was loaded into a sample pan, suspended from a microbalance and exposed to a humidified stream of nitrogen gas. The sample was held for a minimum of 5 min at each level and only progressed to the next humidity level if there was <0.002% change in weight between measurements (interval: 60 seconds) or 240 min had elapsed.

[4] = Particle size distribution (PSD); assay type: physicochemical
Experimental: Several other Experiments (Experiment 2, Experiment 3, Experiment 4, Experiment 5, Experiment 7, and Experiment 8) were performed to study the effect of seed loading, seed size and scale on particle size of final product.
The material as received was characterized by X-Ray Powder Diffraction (XRPD), Polarized Light Microscopy (PLM), Particle Size Distribution (PSD), Thermo-Gravimetric Analysis (TGA) and Differential Scanning Calorimetry (DSC).
In the second batch, crystals with rod morphology and a length of greater than 200 μm were observed. Two final scaled up batches were performed. A 43 gram batch was produced as small seeds and a 22 gram batch was produced using the first 10 gram batch (Crystallization 1) as large seeds to assess the impact of different size seeds on the process. Scanning electron microscopy (SEM) was used to compliment the polarized light microscope (PLM) and particle size distribution (PSD) measurements.

[5] = Wet-milling study (ball mill, 30 s, 1 vol. water); assay type: physicochemical; settings: milled with 1 vol. water
[6] = 24 h
Experimental: (§1) An abbreviated polymorph/solvate screen and approximate solubility determination were performed utilizing each class III solvent and several class II solvents as listed under ICH Guidelines Q3C. […] Form P was chosen as the target polymorph for crystallization.

[7] = physchem; assay type: physicochemical; settings: organic solvent or mixture, thermodynamic from solid
Experimental: Crystalline, Form V material of (S)-12-fluoro-4-(2-methylpyridin-3-yl)-7a,8,13,14-tetrahydro-7H-[1,2,4]triazolo[4′,3′:1,6]pyrido[3,2-b]benzofuro[4,3-fg][1,4]oxazonine, free base, was prepared as follows. About 12 mg of Form P material was loaded into a 2 mL vial. […] The solution was stirred overnight and the next day a slurry was observed. The slurry solids were collected and analyzed by XRPD.

[8] = physchem; settings: organic solvent or mixture, thermodynamic from solid
Experimental: as §1

[9] = physchem; settings: 70 °C, organic solvent or mixture, thermodynamic from solid
Experimental: as §1

[10] = Crystallization 1, 10 gram scale, milled Form P as seeds
[11] = Crystallization 2, 10 gram scale, crystals from Crystallization 1 as seeds
[12] = Experiment 1, initial process, 0.5 w/w % seed
[13] = Experiment 2, effect of seed loading, 0.5 w/w % milled seed
[14] = Experiment 3, effect of seed loading, 3.0 w/w % milled seed
[15] = Experiment 4, effect of seed size, 1.0 w/w % large seed
[16] = Experiment 5, effect of seed size, 1.0 w/w % milled seed
[17] = Experiment 6, wet milling study, after milling
[18] = Experiment 6, wet milling study, before milling
[19] = Experiment 7, effect of scale, 3 g scale
[20] = Experiment 8, effect of scale, 10 g scale

stability of salt in water slurry [1]: disproportionated
Compound: (S)-12-fluoro-4-(2-methylpyridin-3-yl)-7a,8,13,14-tetrahydro-7H-[1,2,4]triazolo[4′,3′:1,6]pyrido[3,2-b]benzofuro[4,3-fg][1,4]oxazonine [Form 7-A]

XRPD Form humidity ([2]; slurry solvent EtOAc): Am | XRPD Form humidity ([2]; slurry solvent EtOH): Am
Compound: (S)-12-fluoro-4-(2-methylpyridin-3-yl)-7a,8,13,14-tetrahydro-7H-[1,2,4]triazolo[4′,3′:1,6]pyrido[3,2-b]benzofuro[4,3-fg][1,4]oxazonine [Benzenesulfonic acid (1)]

DVS reversable total mass change [3]: about 10.3 wt. %
Compound: Cc1ncccc1-c1cc2c(n3cnnc13)NCc1c(F)ccc3c1C(CO3)CO2 (stereo in doubt) [Form E, (S)-12-fluoro-4-(2-methylpyridin-3-yl)-7a,8,13,14-tetrahydro-7H-[1,2,4]triazolo[4′,3′:1,6]pyrido[3,2-b]benzofuro[4,3-fg][1,4]oxazonine]

DVS reversable total mass change [3]: about 0.82 wt. %
Compound: (S)-12-fluoro-4-(2-methylpyridin-3-yl)-7a,8,13,14-tetrahydro-7H-[1,2,4]triazolo[4′,3′:1,6]pyrido[3,2-b]benzofuro[4,3-fg][1,4]oxazonine [Form 8-B]

DVS reversable total mass change [3]: about 0.97 wt. %
Compound: (S)-12-fluoro-4-(2-methylpyridin-3-yl)-7a,8,13,14-tetrahydro-7H-[1,2,4]triazolo[4′,3′:1,6]pyrido[3,2-b]benzofuro[4,3-fg][1,4]oxazonine [Form 13-A]

Particle Size Distribution D(10) [4, 10]: 37.2 µm | Particle Size Distribution D(50) [4, 10]: 115 µm | Particle Size Distribution D(90) [4, 10]: 196 µm | Particle Size Distribution D(10) [4, 11]: 23.4 µm | Particle Size Distribution D(50) [4, 11]: 126 µm | Particle Size Distribution D(90) [4, 11]: 634 µm | Particle Size Distribution (PSD) D10 [4, 12]: 19 μm | Particle Size Distribution (PSD) D50 [4, 12]: 100 μm | Particle Size Distribution (PSD) D90 [4, 12]: 213 μm | Particle Size Distribution (PSD) D10 [4, 13]: 17 μm | Particle Size Distribution (PSD) D50 [4, 13]: 93 μm | Particle Size Distribution (PSD) D90 [4, 13]: 187 μm | Particle Size Distribution (PSD) D10 [4, 14]: 7 μm | Particle Size Distribution (PSD) D50 [4, 14]: 31 μm | Particle Size Distribution (PSD) D90 [4, 14]: 83 μm | Particle Size Distribution (PSD) D10 [4, 15]: 28 μm | Particle Size Distribution (PSD) D50 [4, 15]: 90 μm | Particle Size Distribution (PSD) D90 [4, 15]: 171 μm | Particle Size Distribution (PSD) D10 [4, 16]: 15 μm | Particle Size Distribution (PSD) D50 [4, 16]: 82 μm | Particle Size Distribution (PSD) D90 [4, 16]: 164 μm | Particle Size Distribution (PSD) D10 [4, 17]: 11 μm | Particle Size Distribution (PSD) D50 [4, 17]: 37 μm | Particle Size Distribution (PSD) D90 [4, 17]: 95 μm | Particle Size Distribution (PSD) D10 [4, 18]: 32 μm | Particle Size Distribution (PSD) D50 [4, 18]: 199 μm | Particle Size Distribution (PSD) D90 [4, 18]: 372 μm | Particle Size Distribution (PSD) D10 [4, 19]: 11 μm | Particle Size Distribution (PSD) D50 [4, 19]: 48 μm | Particle Size Distribution (PSD) D90 [4, 19]: 113 μm | Particle Size Distribution (PSD) D10 [4, 20]: 11 μm | Particle Size Distribution (PSD) D50 [4, 20]: 45 μm | Particle Size Distribution (PSD) D90 [4, 20]: 121 μm | D10 ([4]; starting material as received): 1.99 μm | D50 ([4]; starting material as received): 3.33 μm | D90 ([4]; starting material as received): 5.35 μm | purity after slurry (potential degradation) [6]: 99.9% | solubility [7]: 167 to 333 mg/mL (≈ 414 to 825 mM) | solubility [8]: > 10 mg/mL | DVS reversable total mass change [3]: about 0.53 wt. % | solubility [9]: 56.7 mg/mL (≈ 140 mM)
Compound: Cc1ncccc1-c1cc2c(n3cnnc13)NCc1c(F)ccc3c1C(CO3)CO2 (stereo in doubt) [Form P, (S)-12-fluoro-4-(2-methylpyridin-3-yl)-7a,8,13,14-tetrahydro-7H-[1,2,4]triazolo[4′,3′:1,6]pyrido[3,2-b]benzofuro[4,3-fg][1,4]oxazonine]
crystallinity and solid form purity after wet milling [5]: maintained crystallinity and solid form purity

DVS reversable total mass change [3]: about 1.4 wt. %
Compound: (S)-12-fluoro-4-(2-methylpyridin-3-yl)-7a,8,13,14-tetrahydro-7H-[1,2,4]triazolo[4′,3′:1,6]pyrido[3,2-b]benzofuro[4,3-fg][1,4]oxazonine [Form 10-A]

DVS reversable total mass change [3]: about 7.6 wt. %
Compound: Cc1ncccc1-c1cc2c(n3cnnc13)NCc1c(F)ccc3c1C(CO3)CO2 (stereo in doubt) [Form H, (S)-12-fluoro-4-(2-methylpyridin-3-yl)-7a,8,13,14-tetrahydro-7H-[1,2,4]triazolo[4′,3′:1,6]pyrido[3,2-b]benzofuro[4,3-fg][1,4]oxazonine]

DVS reversable total mass change [3]: about 3.1 wt. %
Compound: (S)-12-fluoro-4-(2-methylpyridin-3-yl)-7a,8,13,14-tetrahydro-7H-[1,2,4]triazolo[4′,3′:1,6]pyrido[3,2-b]benzofuro[4,3-fg][1,4]oxazonine [Form 5-A]
